Molecules are shown by their SMILES.

The results in this text go back to patent US20260132140A1, “IMIDAZOLYL-AMINO-PYRAZINE-CARBONITRILS AS CHK-1 INHIBITORS” (BenevolentAI Bio Limited, priority 2022, published 2026).

Assay [1] deals with human Chk2 kinase (Homo sapiens, UniProt O96017). The assay can be described thus: biochemical.
In assay [2] the test system is GBM LN18 cells. The assay can be described thus: In vitro cell viability assay (Cell Titre Glo, 72 hours). It counts as cell-based. To be noted: Homo sapiens, LN-18, read-out: LN18 pIC50 (converted). As for the experimental part: GBM LN18 cells were incubated with increasing concentrations of selected compounds of the invention for 72 hours prior to the measurement of ATP in metabolically viable cells with the Cell Titre® Glo Luminescent reagent. A 10-point concentration response curve up to a maximum concentration of 10 μM was tested.
The percent (%) effect i.e., inhibition at each concentration of compound was calculated based on, and relative to the amount of inhibition produced in the vehicle control and inhibited control wells contained within each plate.

Assay [3] addresses T1, human Chk1 kinase (Homo sapiens, UniProt O14757).
T1 sequence (O14757 1-476): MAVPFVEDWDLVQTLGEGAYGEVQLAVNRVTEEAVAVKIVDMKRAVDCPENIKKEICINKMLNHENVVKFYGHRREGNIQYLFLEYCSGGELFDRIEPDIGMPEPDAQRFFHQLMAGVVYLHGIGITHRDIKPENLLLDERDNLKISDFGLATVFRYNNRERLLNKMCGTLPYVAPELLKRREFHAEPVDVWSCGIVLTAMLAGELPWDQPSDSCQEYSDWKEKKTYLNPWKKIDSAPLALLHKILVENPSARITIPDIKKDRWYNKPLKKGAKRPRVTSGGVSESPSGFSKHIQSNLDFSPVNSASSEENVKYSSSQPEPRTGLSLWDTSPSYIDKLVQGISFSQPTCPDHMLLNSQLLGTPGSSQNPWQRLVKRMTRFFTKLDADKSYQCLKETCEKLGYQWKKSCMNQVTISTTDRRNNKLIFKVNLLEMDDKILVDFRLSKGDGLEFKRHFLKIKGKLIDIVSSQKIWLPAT
Put plainly: biochemical.

Sequence of human Chk2 kinase (O96017 whole entry): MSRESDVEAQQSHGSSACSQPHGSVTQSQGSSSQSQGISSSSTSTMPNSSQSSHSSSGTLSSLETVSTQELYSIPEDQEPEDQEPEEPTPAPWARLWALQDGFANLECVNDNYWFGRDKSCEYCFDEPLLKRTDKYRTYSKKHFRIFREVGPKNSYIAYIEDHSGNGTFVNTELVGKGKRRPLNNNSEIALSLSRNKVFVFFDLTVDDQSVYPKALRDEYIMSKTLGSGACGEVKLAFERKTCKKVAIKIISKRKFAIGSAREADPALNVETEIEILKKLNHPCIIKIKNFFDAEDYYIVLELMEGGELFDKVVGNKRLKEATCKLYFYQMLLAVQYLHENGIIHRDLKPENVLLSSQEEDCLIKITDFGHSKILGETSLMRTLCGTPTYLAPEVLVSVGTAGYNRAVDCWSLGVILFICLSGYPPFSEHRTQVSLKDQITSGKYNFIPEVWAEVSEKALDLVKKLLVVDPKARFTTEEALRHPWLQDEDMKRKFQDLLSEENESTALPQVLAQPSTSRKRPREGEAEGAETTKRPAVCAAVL

Take `CN(C)[C@@H]1CCN(c2cnc(-n3cnc(Nc4cnc(C#N)cn4)c3)cn2)C1` [Example 52, (R)-5-((1-(5-(3-(Dimethylamino)pyrrolidin-1-yl)pyrazin-2-yl)-1H-imidazol-4-yl)amino)pyrazine-2-carbonitrile]: the IC50 in assay [1] was 10000 to 100000 nM; in assay [2], 1000 to 10000 nM; in assay [3] it was 31.6 to 100 nM.

With `CN1C[C@@H]2CN(c3ccc(-n4cnc(Nc5cnc(C#N)cn5)c4)cc3)[C@@H]2C1` [Example 67, 5-((1-(4-((1R,5S)-3-Methyl-3,6-diazabicyclo[3.2.0]heptan-6-yl)phenyl)-1H-imidazol-4-yl)amino)pyrazine-2-carbonitrile], the figures for the IC50 in assay [1], in assay [2] and in assay [3] were 10000 to 100000 nM, less than 1000 nM and 31.6 to 100 nM, respectively.

Take `CN1C[C@H]2CN(c3ccc(-n4cnc(Nc5cnc(C#N)cn5)c4)cc3)[C@H]2C1` [Example 68, 5-((1-(4-((1S,5R)-3-Methyl-3,6-diazabicyclo[3.2.0]heptan-6-yl)phenyl)-1H-imidazol-4-yl)amino)pyrazine-2-carbonitrile]: the IC50 in assay [1] was 10000 to 100000 nM; in assay [2], less than 1000 nM; in assay [3] it was 31.6 to 100 nM.

As for `CN1CC2(CCN(c3ccc(-n4cnc(Nc5cnc(C#N)cn5)c4)cc3)C2)C1` [Example 69, 5-((1-(4-(2-Methyl-2,6-diazaspiro[3.4]octan-6-yl)phenyl)-1H-imidazol-4-yl)amino)pyrazine-2-carbonitrile], the IC50 was 10000 to 100000 nM in assay [1], 1000 to 10000 nM in assay [2] and 10 to 31.6 nM in assay [3].

As to `CN(C)[C@@H]1CCN(c2ccc(-n3cnc(Nc4cnc(C#N)cn4)c3)c(C(F)(F)F)c2)C1` [Example 71, (R)-5-((1-(4-(3-(Dimethylamino)pyrrolidin-1-yl)-2-(trifluoromethyl)phenyl)-1H-imidazol-4-yl)amino)pyrazine-2-carbonitrile], the IC50 is more than 100000 nM in assay [1], less than 1000 nM in assay [2] and 100 to 316 nM in assay [3].

As for `C[C@H]1C[C@@H](N(C)C)CN1c1ccc(-n2cnc(Nc3cnc(C#N)cn3)c2)cc1` [Example 75, 5-((1-(4-((2S,4R)-4-(Dimethylamino)-2-methylpyrrolidin-1-yl)phenyl)-1H-imidazol-4-yl)amino)pyrazine-2-carbonitrile], the IC50 in assay [2] was less than 1000 nM.

In the case of `N#Cc1cnc(Nc2cn(-c3ccc(OCCN)cc3)cn2)cn1` [Example 150, 5-((1-(4-(2-Aminoethoxy)phenyl)-1H-imidazol-4-yl)amino)pyrazine-2-carbonitrile], the IC50 in assay [2] is 1000 to 10000 nM.

Consider `CN[C@H]1CN(c2ccc(-n3cnc(Nc4cnc(C#N)cn4)c3)c(OC)c2)C[C@H]1F` [Example 164, 5-((1-(4-((3R,4S)-3-Fluoro-4-(methylamino)pyrrolidin-1-yl)-2-methoxyphenyl)-1H-imidazol-4-yl)amino)pyrazine-2-carbonitrile], for which the IC50 in assay [1] was 1000 to 10000 nM; in assay [3] it was less than 10 nM.

Turning to `COc1cc(CN2CC[C@@H](F)C2)ccc1-n1cnc(Nc2cnc(C#N)cn2)c1` [Example 169], the IC50 in assay [1] lay within 10000 to 100000 nM; in assay [3] it was 10 to 31.6 nM.

In the case of `CCNCc1ccc(-n2cnc(Nc3cnc(C#N)cn3)c2)c(OC)c1` [Example 170, 5-((1-(4-((Ethylamino)methyl)-2-methoxyphenyl)-1H-imidazol-4-yl)amino)pyrazine-2-carbonitrile], the IC50 is 10000 to 100000 nM in assay [1] and 10 to 31.6 nM in assay [3].

For `COc1cc(CN2CCCC2)ccc1-n1cnc(Nc2cnc(C#N)cn2)c1` [Example 171, 5-((1-(2-Methoxy-4-(pyrrolidin-1-ylmethyl)phenyl)-1H-imidazol-4-yl)amino)pyrazine-2-carbonitrile], the IC50 in assay [1] was 10000 to 100000 nM; in assay [3], 10 to 31.6 nM.

On to `COc1cc(CN2CCC(F)(F)CC2)ccc1-n1cnc(Nc2cnc(C#N)cn2)c1` [Example 172, 5-((1-(4-((4,4-Difluoropiperidin-1-yl)methyl)-2-methoxyphenyl)-1H-imidazol-4-yl)amino)pyrazine-2-carbonitrile], for which the IC50 in assay [1] was in the range of 10000 to 100000 nM; in assay [3], 31.6 to 100 nM.

As to `COc1cc(CN2CCOCC2)ccc1-n1cnc(Nc2cnc(C#N)cn2)c1` [Example 173, 5-((1-(2-Methoxy-4-(morpholinomethyl)phenyl)-1H-imidazol-4-yl)amino)pyrazine-2-carbonitrile], the IC50 in assay [1] was in the range of 10000 to 100000 nM; in assay [3], 31.6 to 100 nM.

Regarding `N#Cc1cnc(Nc2cn(-c3ccc(CN4CCC(F)CC4)cc3)cn2)cn1` [Example 174, 5-((1-(4-((4-Fluoropiperidin-1-yl)methyl)phenyl)-1H-imidazol-4-yl)amino)pyrazine-2-carbonitrile], the results for the IC50 in assay [1] and in assay [3] were 10000 to 100000 nM and 31.6 to 100 nM, respectively.

As to `CN1CC2(CC(Oc3cccc(-n4cnc(Nc5cnc(C#N)cn5)c4)c3)C2)C1` [Example 175, 5-((1-(3-((2-Methyl-2-azaspiro[3.3]heptan-6-yl)oxy)phenyl)-1H-imidazol-4-yl)amino)pyrazine-2-carbonitrile], the IC50 lay in the range of 10000 to 100000 nM in assay [1] and 31.6 to 100 nM in assay [3].

With `CN1[C@@H]2COC[C@H]1CN(c1ccc(-n3cnc(Nc4cnc(C#N)cn4)c3)cc1)C2` [Example 177, 5-((1-(4-((1R,5S)-9-Methyl-3-oxa-7,9-diazabicyclo[3.3.1]nonan-7-yl)phenyl)-1H-imidazol-4-yl)amino)pyrazine-2-carbonitrile], the figures for the IC50 in assay [1] and in assay [3] were 10000 to 100000 nM and 100 to 316 nM, respectively.

Turning to `CN1CC2(CC(Oc3ccc(-n4cnc(Nc5cnc(C#N)cn5)c4)cc3)C2)C1` [Example 178, 5-((1-(4-((2-Methyl-2-azaspiro[3.3]heptan-6-yl)oxy)phenyl)-1H-imidazol-4-yl)amino)pyrazine-2-carbonitrile], the IC50 fell in the range of 10000 to 100000 nM in assay [1] and 31.6 to 100 nM in assay [3].

As for `CCN(CC)C1(c2ccc(-n3cnc(Nc4cnc(C#N)cn4)c3)cc2)CC1` [Example 179, 5-((1-(4-(1-(Diethylamino)cyclopropyl)phenyl)-1H-imidazol-4-yl)amino)pyrazine-2-carbonitrile], the IC50 in assay [1] is more than 100000 nM; in assay [3] it was 100 to 316 nM.

Consider `COc1cc(OC2CC3(C2)CN(C)C3)ccc1-n1cnc(Nc2cnc(C#N)cn2)c1` [Example 180, 5-((1-(2-Methoxy-4-((2-methyl-2-azaspiro[3.3]heptan-6-yl)oxy)phenyl)-1H-imidazol-4-yl)amino)pyrazine-2-carbonitrile], for which the results for the IC50 in assay [1] and in assay [3] were 10000 to 100000 nM and 31.6 to 100 nM, respectively.

For `N#Cc1cnc(Nc2cn(-c3ccc(N4CCN(C5CC(F)(F)C5)CC4)cc3)cn2)cn1` [Example 181, 5-((1-(4-(4-(3,3-Difluorocyclobutyl)piperazin-1-yl)phenyl)-1H-imidazol-4-yl)amino)pyrazine-2-carbonitrile], the IC50 in assay [1] is more than 100000 nM; in assay [3], 31.6 to 100 nM.

Take `N#Cc1cnc(Nc2cn(-c3ccc(N4CCN(C5COC5)CC4)cc3)cn2)cn1` [Example 182, 5-((1-(4-(4-(Oxetan-3-yl)piperazin-1-yl)phenyl)-1H-imidazol-4-yl)amino)pyrazine-2-carbonitrile]: the IC50 fell in the range of 10000 to 100000 nM in assay [1] and 31.6 to 100 nM in assay [3].

Regarding `CC(C)N1CCN(c2ccc(-n3cnc(Nc4cnc(C#N)cn4)c3)cc2)CC1` [Example 186, 5-((1-(4-(4-Isopropylpiperazin-1-yl)phenyl)-1H-imidazol-4-yl)amino)pyrazine-2-carbonitrile], the IC50 was more than 100000 nM in assay [1] and 100 to 316 nM in assay [3].
